Values joined by “and” are separate entries in the source; they are usually repeats but may differ in a detail not shown here. Equal entries are not always repeated. Non-standard residues stand in square brackets, D forms with d. Residues, ends and D or L forms follow the SMILES beside them. pGlu = O=C1CC[C@@H](C(=O)O)N1
Legend:
[1] = molecular target: A. aegypti AKHR-IA receptor (AKHR-IA) (Aedes aegypti, UniProt A0A2P1A8S4); experiment: Calcium bioluminescence (aequorin) reporter assay of heterologously expressed AKHR-IA; type: cell-based; settings: for Fold-reduction in activity relative to Aedae-AKH: AKHR-IA in CHO-K1 aequorin cells, relative to native Aedae-AKH; for EC50: CHO-K1 cells stably expressing aequorin, transiently transfected with AKHR-IA (pcDNA3.1+), luminescence 20 s, 3 to 4 independent biological replicates, ND = no determined EC50 due to minimal or no detectable activity up to 10 μM
Protocol: For each construct, an overnight liquid culture of clonal recombinant bacteria containing the appropriate plasmid construct was grown in antibiotic-containing LB media and used to isolate midiprep DNA using the PureLink Midiprep kit (Life Technologies, Burlington, ON). Midiprep samples were then quantified and sent for sequencing as described previously ([26], [27]).
(§1) Functional activation of the AedaeACPR and AedaeAKHR-IA receptors was carried out following a previously described mammalian cell culture system involving a Chinese hamster ovary (CHO)-K1 cell line stably expressing aequorin ([43]). Cells were grown in DMEM:F12 media containing 10% heat-inactivated fetal bovine serum (Wisent, St. Bruno, QC), 200 μg/mL Geneticin, 1x antimycotic-antibiotic to approximately 90% confluency, and were transiently transfected using either Lipofectamine LTX with Plus Reagent or Lipofectamine 3000 transfection systems (Invitrogen, Burlington, ON) following manufacturer recommended DNA to transfection reagent ratios. Cells were detached from the culture flasks at 48 h post-transfection using 5 mM EDTA in Dulbecco's PBS. Cells were then prepared for the receptor functional assay following a procedure described previously ([27]). Stocks of peptide analogs of ACP and AKH were used for preparation of serial dilutions all of which were prepared in assay media (0.1% BSA in DMEM:F12) and loaded in quadruplicates into 96-well white luminescence plates (Greiner Bio-One, Germany). Cells were loaded with an automatic injector into each well of the plate containing different peptide analogs at various concentrations as well as negative control (assay media alone) and positive control wells (50 μM ATP). Immediately after injection of the cells, luminescence was measured for 20 s using a Synergy 2 Multi-Mode Microplate Reader (BioTek, Winooski, VT, USA). Calculations, including determination of EC50 values, were conducted in GraphPad Prism 7.02 (GraphPad Software, San Diego, USA) from dose-response curves from 3 to 4 independent biological replicates.

[2] = tested on: A. aegypti ACP receptor (AedaeACPR); experiment: Calcium bioluminescence (aequorin) reporter assay of heterologously expressed ACPR; type: cell-based, Aedes aegypti
Source text: Therefore, to improve the bioluminescent signal linked to calcium mobilization following receptor activation, which was required in order to provide greater signal to noise ratio when testing ACP analogs with substitutions leading to intermediate levels of activation of the ACPR, we created a new mammalian expression construct using the dual promoter vector, pBudCE4.1. Specifically, we utilized a cloning strategy as reported previously ([41]) whereby the ACPR was inserted into the multiple cloning site (MCS) downstream of the CMV promoter in pBudCE4.1 using the sense primer SalI-KozakACPR, 5′-[…]-3′ and anti-sense primer XbaI-ACPR, 5′-[…]-3′, which directionally inserted the ACPR within the MCS downstream of the CMV promoter. Secondly, the murine homolog (Gα15) of the human promiscuous G protein, Gα16, which indiscriminately couples a wide variety of GPCRs to calcium signaling ([42]) was inserted into the MCS downstream of the EF1-α promoter in pBudCE4.1 using the sense primer NotI-Gα15, 5′-[…]-3′ and anti-sense primer BglII-Gα15, 5′-[…]-3′, which directionally inserted the murine Gα15 within the MCS downstream of the EF1-α promoter.
as §1

Sequence of A. aegypti AKHR-IA receptor (AKHR-IA) (A0A2P1A8S4 1-410): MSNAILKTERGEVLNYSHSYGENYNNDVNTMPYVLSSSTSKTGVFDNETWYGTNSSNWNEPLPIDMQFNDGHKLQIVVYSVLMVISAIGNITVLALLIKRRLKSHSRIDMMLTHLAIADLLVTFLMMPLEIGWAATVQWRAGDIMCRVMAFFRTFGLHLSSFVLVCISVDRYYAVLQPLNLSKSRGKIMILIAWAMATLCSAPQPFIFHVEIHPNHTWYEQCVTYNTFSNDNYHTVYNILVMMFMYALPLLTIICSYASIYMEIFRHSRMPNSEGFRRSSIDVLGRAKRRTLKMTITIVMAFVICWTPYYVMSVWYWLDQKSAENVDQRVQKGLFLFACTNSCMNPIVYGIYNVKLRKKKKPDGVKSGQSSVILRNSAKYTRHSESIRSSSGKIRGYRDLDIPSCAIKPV

`CC(C)C[C@H](NC(=O)[C@@H]1CCC(=O)N1)C(=O)N[C@H](C(=O)N[C@@H](Cc1ccccc1)C(=O)N[C@H](C(=O)N1CCC[C@H]1C(=O)N[C@@H](CC(N)=O)C(=O)N[C@@H](Cc1c[nH]c2ccccc12)C(N)=O)[C@@H](C)O)[C@@H](C)O` [Peram-CAH-II] ([pGlu]LTFTPNW-NH2) was tested, and the “Fold-reduction in activity relative to Aedae-AKH” value [1] was 1.0 fold and the EC50 [1] was 2.23 nM.
`CC(C)[C@H](NC(=O)[C@@H]1CCC(=O)N1)C(=O)N[C@@H](CC(N)=O)C(=O)N[C@@H](Cc1ccccc1)C(=O)N[C@H](C(=O)N1CCC[C@H]1C(=O)N[C@@H](CO)C(=O)N[C@@H](Cc1c[nH]c2ccccc12)C(N)=O)[C@@H](C)O` [Libau-AKH] ([pGlu]VNFTPSW-NH2) was tested, and the “Fold-reduction in activity relative to Aedae-AKH” value [1] was 548 fold and 547.9 fold, the EC50 [1] was 1180 nM and the “Improved AKHR-IA activation over that achieved by Grybi-AKH” value ([1]; relative to Grybi-AKH) was about 2 fold.
In the case of `CC(C)C[C@H](NC(=O)[C@@H]1CCC(=O)N1)C(=O)N[C@H](C(=O)N[C@@H](Cc1ccccc1)C(=O)N[C@H](C(=O)N1CCC[C@H]1C(=O)NCC(=O)N[C@@H](Cc1c[nH]c2ccccc12)C(=O)NCC(=O)N[C@@H](CCC(N)=O)C(N)=O)[C@@H](C)O)[C@@H](C)O` [Bommo-AKH] ([pGlu]LTFTPGWGQ-NH2), the “Activity on ACPR at the highest tested dose, in words” value ([2]; 10 μM, Figure 2, ANOVA and Tukey post-test) is reported as “inactive”, the “Fold-reduction in activity relative to AedaeACP” value ([2]; ACPR in CHO-K1 aequorin cells, relative to native Aedae-ACP) is reported as >1,000 fold and the “Fold-reduction in activity relative to Aedae-AKH” value [1] is reported as 11 fold and 10.9 fold. The EC50 [1] was 23.6 nM.
`CC(C)[C@H](NC(=O)[C@@H]1CCC(=O)N1)C(=O)N[C@@H](CC(N)=O)C(=O)N[C@@H](Cc1ccccc1)C(=O)N[C@@H](CO)C(=O)N[C@H](C(=O)NCC(=O)N[C@@H](Cc1c[nH]c2ccccc12)C(N)=O)[C@@H](C)O` [Grybi-AKH] ([pGlu]VNFSTGW-NH2) showed an EC50 [1] of 2230 nM.
In the case of `CC(C)C[C@H](NC(=O)[C@@H]1CCC(=O)N1)C(=O)N[C@@H](CC(N)=O)C(=O)N[C@@H](Cc1ccccc1)C(=O)N[C@H](C(=O)N1CCC[C@H]1C(=O)N[C@@H](CC(N)=O)C(=O)N[C@@H](Cc1c[nH]c2ccccc12)C(N)=O)[C@@H](C)O` [Pyrap-AKH] ([pGlu]LNFTPNW-NH2), the “Fold-reduction in activity relative to Aedae-AKH” value [1] is reported as 337 fold and 336.7 fold and the EC50 [1] is reported as 727 nM.
`CC(C)C[C@H](NC(=O)[C@@H]1CCC(=O)N1)C(=O)N[C@H](C(=O)N[C@@H](Cc1ccccc1)C(=O)N[C@H](C(=O)N1CCC[C@H]1C(=O)NCC(=O)N[C@@H](Cc1c[nH]c2ccccc12)C(N)=O)[C@@H](C)O)[C@@H](C)O` [Tabat-AKH] ([pGlu]LTFTPGW-NH2) was tested, and the “Fold-reduction in activity relative to Aedae-AKH” value [1] was 0.7 fold, the EC50 [1] was 1.52 nM and the “Improved efficacy on AKHR-IA relative to native mosquito AKH” value ([1]; relative to Aedae-AKH) was ~ 30% and 30%.
